Like-named read-outs stand apart in the source and are kept apart here. Starred links: 1 amine or outer side, 2 acyl side, 3 side chain; linkers in the order of their positions; H or OH if unused. Positions of bridges follow the written chain, without caps; N, C: chain ends. Non-standard residues stand in square brackets, D forms with d. Residues, ends and D or L forms follow the SMILES beside them. *: point of attachment. NMeF = CN[C@@H](Cc1ccccc1)C(=O)O; NMeI = CC[C@H](C)[C@H](NC)C(=O)O; NMeβAla = CN(CCC(=O)[*:2])[*:1]; NMeL = CN[C@@H](CC(C)C)C(=O)O; NMeV = CN[C@H](C(=O)O)C(C)C; NMeA = CN[C@@H](C)C(=O)O; Piperidide = C1CCN(*)CC1; dNMeA = CN[C@H](C)C(=O)O; Sar = CNCC(=O)O
Experiments:
[1] = Metabolic stability in human hepatic microsome; type: in vitro ADME; settings: microsomes
[2] = PAMPA (parallel artificial membrane permeability assay); type: in vitro ADME; settings: for Papp at 18 hours, 50 µM: PAMPA
Procedure, shortened: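 Artificial membrane was 10% (w/v) egg lecithin plus 0.5% (w/v) cholesterol in dodecane on a PVDF filter. A 10 mM DMSO stock was added at 0.5% (v/v) to donor buffer (50 mM MOPSO, pH 6.5, 5.0% glycocholic acid). After 18 h at 37 °C, LC/MS or LC/UV gave donor and acceptor levels for Pe.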

[3] = pH 7.4, human hepatic microsome, NADPH(+), read-out: CL NADPH(+)
[4] = membrane permeation rate (Pe), 50 mM MOPSO buffer pH 6.5 with 5.0% glycocholic acid, 37° C., 18 hours, read-out: iPAMPA Pe

Structure (SMILES)	microsomal CLint at 1 uM [1, 3] [µL/min/mg]	Papp at 18 hours, 50 µM [2, 4] [×10⁻⁶ cm/s]	microsomal CLint at 1 uM ([1]; human, pH 7.4, CL NADPH(+)) [µL/min/mg]	Papp at 18 hours, 50 µM ([2]; pH 6.5) [×10⁻⁶ cm/s]	iPAMPA Pe ([2]; membrane permeation rate (Pe), 50 mM MOPSO buffer pH 6.5 with 5.0% glycocholic acid, 37° C., 18 hours)
CC[C@H](C)[C@@H]1NC(=O)[C@H](Cc2ccccc2)N(C)C(=O)[C@H](C(C)C)N(C)C(=O)[C@H](Cc2ccccc2)NC(=O)[C@H](CC(C)C)N(C)C(=O)[C@H](CC(C)C)NC(=O)[C@@H](C(C)C)NC(=O)C[C@@H](C(=O)N2CCCCC2)NC(=O)[C@H]([C@@H](C)O)NC(=O)[C@H](C)NC(=O)[C@H](C)N(C)C1=O [DP-230] ([dV]L[NMeL]F[NMeV][NMeF]I[NMeA]ATD-Piperidide; lactam N-11)	31	44			
CC[C@H](C)[C@H]1C(=O)NCC(=O)N[C@@H]([C@@H](C)O)C(=O)N2CCC[C@H]2C(=O)N[C@@H](Cc2ccccc2)C(=O)N(C)[C@@H](CC(C)C)C(=O)N[C@H](C(=O)N2CCCCC2)CC(=O)N[C@H](C(C)C)C(=O)N[C@@H](Cc2ccccc2)C(=O)N(C)[C@@H](CC(C)C)C(=O)N[C@@H](CC(C)C)C(=O)N1C [DP-231] ([dV]F[NMeL]L[NMeI]GTPF[NMeL]D-Piperidide; lactam N-11)			56	18	
CC[C@H](C)[C@H]1C(=O)N[C@@H]([C@@H](C)O)C(=O)N(C)CC(=O)N[C@H](C(=O)N2CCCCC2)CC(=O)N[C@H](C(C)C)C(=O)N[C@@H](CC(C)C)C(=O)N(C)[C@@H](CC(C)C)C(=O)N(C)[C@@H](Cc2ccccc2)C(=O)N[C@@H](C)C(=O)N(C)[C@@H](Cc2ccccc2)C(=O)N(C)[C@@H](CC(C)C)C(=O)N1C [DP-232] ([dV]L[NMeL][NMeF]A[NMeF][NMeL][NMeI]T[Sar]D-Piperidide; lactam N-11)	77	18			
CC[C@H](C)[C@H]1C(=O)N(C)CC(=O)N(C)[C@@H](C(C)C)C(=O)N[C@@H]([C@@H](C)O)C(=O)N[C@H](C(=O)N2CCCCC2)CC(=O)N[C@H](C(C)C)C(=O)N(C)[C@@H](C)C(=O)N(C)[C@@H](CC(C)C)C(=O)N[C@@H](CC(C)C)C(=O)N(C)[C@@H](Cc2ccccc2)C(=O)N[C@@H](Cc2ccccc2)C(=O)N1C [DP-233] ([dV][NMeA][NMeL]L[NMeF]F[NMeI][Sar][NMeV]TD-Piperidide; lactam N-11)	39	32			
CC[C@H](C)[C@H]1C(=O)N(C)[C@@H](CC(C)C)C(=O)N[C@@H]([C@@H](C)O)C(=O)N[C@H](C(=O)N2CCCCC2)CC(=O)N[C@H](C(C)C)C(=O)N(C)[C@@H](C)C(=O)N(C)[C@@H](CC(C)C)C(=O)N(C)[C@@H](Cc2ccccc2)C(=O)N[C@@H](C)C(=O)N(C)[C@@H](CC(C)C)C(=O)N(C)[C@@H](Cc2ccccc2)C(=O)N1C [DP-234] ([dV][NMeA][NMeL][NMeF]A[NMeL][NMeF][NMeI][NMeL]TD-Piperidide; lactam N-11)	91	2			
CC[C@H](C)[C@H]1C(=O)N(C)[C@@H](CC(C)C)C(=O)N[C@@H](C)C(=O)N(C)[C@@H](CC(C)C)C(=O)N(C)[C@@H](Cc2ccccc2)C(=O)N[C@@H]([C@@H](C)O)C(=O)N(C)[C@@H](Cc2ccccc2)C(=O)N(C)[C@@H](CC(C)C)C(=O)N(C)[C@@H](C)C(=O)N[C@H](C(=O)N2CCCCC2)CC(=O)N[C@H](C(C)C)C(=O)N1C [DP-235] ([dV][NMeI][NMeL]A[NMeL][NMeF]T[NMeF][NMeL][NMeA]D-Piperidide; lactam N-11)	58	9			
CC[C@H](C)[C@H]1C(=O)NCC(=O)N(C)[C@@H](CC(C)C)C(=O)N[C@@H]([C@@H](C)O)C(=O)N2CCC[C@H]2C(=O)N[C@@H](Cc2ccccc2)C(=O)N[C@H](C(=O)N2CCCCC2)CC(=O)N(C)[C@@H](C)C(=O)N[C@@H](Cc2ccccc2)C(=O)N(C)[C@@H](CC(C)C)C(=O)N[C@@H](CC(C)C)C(=O)N1C [DP-236] ([NMeA]F[NMeL]L[NMeI]G[NMeL]TPFD-Piperidide; lactam N-11)	79				7.0E−05
CC(C)C[C@@H]1NC(=O)[C@H](CC(C)C)N(C)C(=O)[C@H](C)NC(=O)[C@H](C(C)C)N(C)C(=O)[C@H](C)N(C)C(=O)CN(C)C(=O)[C@H]([C@@H](C)O)NC(=O)[C@H](Cc2ccccc2)NC(=O)[C@H](CC(C)C)N(C)C(=O)[C@H](C)N(C)C(=O)C[C@@H](C(=O)N2CCCCC2)NC1=O [DP-237] ([NMeA][NMeL]FT[Sar][NMeA][NMeV]A[NMeL]LD-Piperidide; lactam N-11)	37	12			
CC[C@H](C)[C@@H]1NC(=O)[C@H](Cc2ccccc2)N(C)C(=O)[C@H]([C@@H](C)O)NC(=O)[C@H](C(C)C)N(C)C(=O)[C@H](CC(C)C)NC(=O)[C@H](CC(C)C)N(C)C(=O)CCN(C)C(=O)C[C@@H](C(=O)N2CCCCC2)NC(=O)[C@H](C)NC(=O)[C@H](C)N(C)C(=O)[C@H](Cc2ccccc2)NC1=O [DP-238] ([NMeβAla][NMeL]L[NMeV]T[NMeF]IF[NMeA]AD-Piperidide; lactam N-11)	129	19			
CC[C@H](C)[C@H]1C(=O)N[C@@H](Cc2ccccc2)C(=O)N[C@@H]([C@@H](C)O)C(=O)N2CCC[C@H]2C(=O)N[C@@H](Cc2ccccc2)C(=O)N[C@H](C(=O)N2CCCCC2)CC(=O)N(C)CCC(=O)N(C)[C@@H](CC(C)C)C(=O)N(C)[C@@H](CC(C)C)C(=O)N[C@@H](CC(C)C)C(=O)NCC(=O)N1C [DP-239] ([NMeβAla][NMeL][NMeL]LG[NMeI]FTPFD-Piperidide; lactam N-11)	109	25			
CC[C@H](C)[C@H]1C(=O)N(C)[C@@H](CC(C)C)C(=O)N[C@H](C(=O)N2CCCCC2)CC(=O)N(C)CCC(=O)N(C)[C@@H](CC(C)C)C(=O)N[C@@H]([C@@H](C)O)C(=O)N(C)[C@@H](C)C(=O)N(C)[C@@H](Cc2ccccc2)C(=O)N[C@@H](C)C(=O)N(C)[C@@H](Cc2ccccc2)C(=O)N[C@@H](CC(C)C)C(=O)N1C [DP-240] ([NMeβAla][NMeL]T[NMeA][NMeF]A[NMeF]L[NMeI][NMeL]D-Piperidide; lactam N-11)	125	38			
CC[C@H](C)[C@H]1C(=O)N(C)[C@@H](Cc2ccccc2)C(=O)N[C@@H]([C@@H](C)O)C(=O)N(C)[C@@H](C)C(=O)N(C)[C@@H](C(C)C)C(=O)N(C)[C@@H](CC(C)C)C(=O)N[C@@H](C)C(=O)N[C@H](C(=O)N2CCCCC2)CC(=O)N(C)CCC(=O)N[C@@H](Cc2ccccc2)C(=O)N(C)[C@@H](CC(C)C)C(=O)N1C [DP-241] ([NMeβAla]F[NMeL][NMeI][NMeF]T[NMeA][NMeV][NMeL]AD-Piperidide; lactam N-11)	30	26			
CC[C@H](C)[C@@H]1NC(=O)[C@H](C)N(C)C(=O)[C@H]([C@@H](C)O)NC(=O)[C@H](C(C)C)N(C)C(=O)[C@H](CC(C)C)NC(=O)[C@H](CC(C)C)N(C)C(=O)[C@@H](C)N(C)C(=O)C[C@@H](C(=O)N2CCCCC2)NC(=O)[C@H](Cc2ccccc2)NC(=O)[C@H](C)NC(=O)[C@H](Cc2ccccc2)N(C)C1=O [DP-242] ([dNMeA][NMeL]L[NMeV]T[NMeA]I[NMeF]AFD-Piperidide; lactam N-11)	43	29			
CC(C)C[C@@H]1NC(=O)[C@H](CC(C)C)N(C)C(=O)[C@H](C)NC(=O)[C@H](C(C)C)N(C)C(=O)[C@H](C)N(C)C(=O)CN(C)C(=O)[C@H]([C@@H](C)O)NC(=O)[C@H](Cc2ccccc2)NC(=O)[C@H](CC(C)C)N(C)C(=O)[C@@H](C)N(C)C(=O)C[C@@H](C(=O)N2CCCCC2)NC1=O [DP-243] ([dNMeA][NMeL]FT[Sar][NMeA][NMeV]A[NMeL]LD-Piperidide; lactam N-11)	32	8.4			
CC[C@H](C)[C@H]1C(=O)N(C)[C@@H](Cc2ccccc2)C(=O)N(C)[C@@H](CC(C)C)C(=O)N[C@H](C(=O)N2CCCCC2)CC(=O)N(C)[C@H](C)C(=O)N(C)[C@@H](CC(C)C)C(=O)N[C@@H]([C@@H](C)O)C(=O)N(C)[C@@H](C)C(=O)N[C@@H](C)C(=O)N(C)[C@@H](Cc2ccccc2)C(=O)N[C@@H](CC(C)C)C(=O)N1C [DP-244] ([dNMeA][NMeL]T[NMeA]A[NMeF]L[NMeI][NMeF][NMeL]D-Piperidide; lactam N-11)	16	31			
CC[C@H](C)[C@@H]1NC(=O)[C@H](C)N(C)C(=O)[C@H]([C@@H](C)O)NC(=O)[C@H](C(C)C)N(C)C(=O)[C@H](CC(C)C)NC(=O)[C@H](CC(C)C)N(C)C(=O)CN(C)C(=O)C[C@@H](C(=O)N2CCCCC2)NC(=O)[C@H](C)NC(=O)[C@H](Cc2ccccc2)NC(=O)[C@H](Cc2ccccc2)N(C)C1=O [DP-245] ([Sar][NMeL]L[NMeV]T[NMeA]I[NMeF]FAD-Piperidide; lactam N-11)	71	31			
CC[C@H](C)[C@H]1C(=O)N(C)[C@@H](CC(C)C)C(=O)N[C@H](C(=O)N2CCCCC2)CC(=O)N(C)CC(=O)N[C@@H](CC(C)C)C(=O)N[C@@H]([C@@H](C)O)C(=O)N(C)CC(=O)N(C)[C@@H](Cc2ccccc2)C(=O)N[C@@H](C)C(=O)N(C)[C@@H](Cc2ccccc2)C(=O)N(C)[C@@H](CC(C)C)C(=O)N1C [DP-246] ([Sar]LT[Sar][NMeF]A[NMeF][NMeL][NMeI][NMeL]D-Piperidide; lactam N-11)	42	41			

Reference: patent US9409952B2, “Peptide-compound cyclization method” (Chugai Seiyaku Kabushiki Kaisha, priority 2011, dated 2016)
